According to PubChem BioAssay AID248 (DTP/NCI, 2004):
Where “and” joins values, the source holds several entries; their conditions need not be identical. Equal entries are not always repeated. Inconclusive results and toxic doses are left out. No stated cut-off is given here; in the data, active means T/C of 150% or more; inactive means T/C below 125%.

Tested on: L1210 leukemia ip in BDF1 mice, survival T/C
Assay: NCI In Vivo Anticancer Drug Screen. Data for tumor model L1210 Leukemia (intraperitoneal) in B6D2F1 (BDF1) mice
Settings: endpoint: mean survival time, higher = longer survival
Summary of the method: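 Value reflects the ratio of survival in compound-treated mice to survival in vehicle-treated controls, with both groups carrying the same transplanted tumor.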

[1] = dose: 100.0 mg/kg/injection, schedule: Q04DX003 (ip), vehicle: saline
[2] = dose: 200.0 mg/kg/injection, schedule: Q04DX003 (ip), vehicle: saline
[3] = dose: 400.0 mg/kg/injection, schedule: Q04DX003 (ip), vehicle: saline

Measured: T/C

Cc1nc(NN)c(C(N)=O)nc1C
inactive: dose: 25.0 mg/kg/injection, schedule: Q01DX009 (ip), vehicle: saline 98 % of control | dose: 25.0 mg/kg/injection, schedule: Q04DX003 (ip), vehicle: saline 101 % of control | dose: 50.0 mg/kg/injection, schedule: Q01DX009 (ip), vehicle: saline 96 % of control | dose: 50.0 mg/kg/injection, schedule: Q04DX003 (ip), vehicle: saline 103 % of control | [1] 104 % of control

COC(=O)C1C2CCC(C2)C1C(=O)OC (stereo not drawn)
inactive: dose: 100.0 mg/kg/injection, schedule: Q04DX002 (ip), vehicle: Klucel (hydroxypropylcellulose) (HPC) 111 % of control | dose: 200.0 mg/kg/injection, schedule: Q04DX002 (ip), vehicle: Klucel (hydroxypropylcellulose) (HPC) 93 % of control | dose: 400.0 mg/kg/injection, schedule: Q04DX002 (ip), vehicle: Klucel (hydroxypropylcellulose) (HPC) 107 % of control

O=[N+]([O-])c1ccc(N/N=C/c2ccc(/C=N/Nc3ccc([N+](=O)[O-])cc3)cc2)cc1
inactive: dose: 15.0 mg/kg/injection, schedule: Q01DX Z (ip), vehicle: carboxymethylcellulose (CMC) 116 % of control | dose: 30.0 mg/kg/injection, schedule: Q01DX Z (ip), vehicle: carboxymethylcellulose (CMC) 104 % of control | dose: 60.0 mg/kg/injection, schedule: Q01DX Z (ip), vehicle: carboxymethylcellulose (CMC) 98 % of control and 106 % of control | dose: 120.0 mg/kg/injection, schedule: Q01DX Z (ip), vehicle: carboxymethylcellulose (CMC) 96 % of control and 98 % of control | dose: 240.0 mg/kg/injection, schedule: Q01DX Z (ip), vehicle: carboxymethylcellulose (CMC) 98 % of control | dose: 240.0 mg/kg/injection, schedule: Q01DX Z (oral), vehicle: carboxymethylcellulose (CMC) 103 % of control | dose: 480.0 mg/kg/injection, schedule: Q01DX Z (ip), vehicle: carboxymethylcellulose (CMC) 95 % of control | dose: 480.0 mg/kg/injection, schedule: Q01DX Z (oral), vehicle: carboxymethylcellulose (CMC) 103 % of control | dose: 960.0 mg/kg/injection, schedule: Q01DX Z (oral), vehicle: carboxymethylcellulose (CMC) 103 % of control

COC(=O)[C@@]12OC[C@]34[C@H]([C@@H](O)[C@@H]1O)[C@@]1(C)CC(=O)C(O)=C(C)[C@@H]1C[C@H]3OC(=O)[C@H](OC(=O)/C=C(\C)C(C)C)[C@@H]24
inactive: dose: 0.03 mg/kg/injection, schedule: Q01DX009 (ip), vehicle: other 111 % of control | dose: 0.03 mg/kg/injection, schedule: Q01DX009 (ip), vehicle: saline with Tween-80 111 % of control | dose: 0.03 mg/kg/injection, schedule: Q03HX024 (ip), vehicle: other 107 % of control | dose: 0.03 mg/kg/injection, schedule: Q03HX024 (ip), vehicle: saline with Tween-80 108 % of control | dose: 0.06 mg/kg/injection, schedule: Q01DX009 (ip), vehicle: other 111 % of control and 116 % of control | dose: 0.06 mg/kg/injection, schedule: Q01DX009 (ip), vehicle: saline with Tween-80 110 % of control and 120 % of control | dose: 0.06 mg/kg/injection, schedule: Q03HX024 (ip), vehicle: other 107 % of control | dose: 0.06 mg/kg/injection, schedule: Q03HX024 (ip), vehicle: saline with Tween-80 114 % of control | dose: 0.12 mg/kg/injection, schedule: Q01DX009 (ip), vehicle: other 118 % of control and 123 % of control | dose: 0.12 mg/kg/injection, schedule: Q01DX009 (ip), vehicle: saline with Tween-80 117 % of control | dose: 0.12 mg/kg/injection, schedule: Q03HX024 (ip), vehicle: other 121 % of control | dose: 0.12 mg/kg/injection, schedule: Q03HX024 (ip), vehicle: saline with Tween-80 116 % of control | dose: 0.25 mg/kg/injection, schedule: Q01DX009 (ip), vehicle: saline with Tween-80 121 % of control | dose: 0.25 mg/kg/injection, schedule: Q03HX024 (ip), vehicle: other 121 % of control | dose: 0.5 mg/kg/injection, schedule: Q01DX009 (ip), vehicle: other 117 % of control | dose: 0.5 mg/kg/injection, schedule: Q01DX009 (ip), vehicle: saline with Tween-80 123 % of control | dose: 0.6 mg/kg/injection, schedule: Q01DX009 (ip), vehicle: saline + alcohol 96 % of control | dose: 0.8 mg/kg/injection, schedule: Q01DX009 (ip), vehicle: saline + alcohol 112 % of control | dose: 1.0 mg/kg/injection, schedule: Q01DX009 (ip), vehicle: other 122 % of control | dose: 1.3 mg/kg/injection, schedule: Q01DX009 (ip), vehicle: saline + alcohol 114 % of control | dose: 2.0 mg/kg/injection, schedule: Q01DX009 (ip), vehicle: saline + alcohol 123 % of control | dose: 8.0 micrograms/kg/injection, schedule: Q01DX009 (ip), vehicle: saline + alcohol 91 % of control | dose: 16.0 micrograms/kg/injection, schedule: Q01DX009 (ip), vehicle: saline + alcohol 100 % of control | dose: 31.0 micrograms/kg/injection, schedule: Q01DX009 (ip), vehicle: saline + alcohol 109 % of control | dose: 62.0 micrograms/kg/injection, schedule: Q01DX009 (ip), vehicle: saline + alcohol 114 % of control | dose: 250.0 micrograms/kg/injection, schedule: Q01DX009 (ip), vehicle: saline + alcohol 115 % of control | dose: 500.0 micrograms/kg/injection, schedule: Q01DX009 (ip), vehicle: saline + alcohol 114 % of control | dose: 1000.0 micrograms/kg/injection, schedule: Q01DX009 (ip), vehicle: saline + alcohol 120 % of control | dose: 2000.0 micrograms/kg/injection, schedule: Q01DX009 (ip), vehicle: saline + alcohol 117 % of control

COc1cc(C(=O)N2CCCCCCC2)cc(OC)c1OC
inactive: dose: 100.0 mg/kg/injection, schedule: Q04DX003 (ip), vehicle: Klucel (hydroxypropylcellulose) (HPC) 98 % of control | dose: 200.0 mg/kg/injection, schedule: Q04DX003 (ip), vehicle: Klucel (hydroxypropylcellulose) (HPC) 102 % of control

CC(=O)O[C@H]1CC[C@H]2[C@@H]3CC[C@H]4CC=C(C#N)C[C@]4(C)[C@H]3CC[C@]12C
inactive: dose: 50.0 mg/kg/injection, schedule: Q01DX001 (sc), vehicle: steriod suspending solution 107 % of control | dose: 100.0 mg/kg/injection, schedule: Q01DX001 (sc), vehicle: steriod suspending solution 104 % of control | dose: 200.0 mg/kg/injection, schedule: Q01DX001 (sc), vehicle: steriod suspending solution 102 % of control | dose: 400.0 mg/kg/injection, schedule: Q01DX001 (sc), vehicle: steriod suspending solution 101 % of control

CCCCCCCCCCC/C(C)=N/Nc1ccc([N+](=O)[O-])cc1[N+](=O)[O-]
inactive: dose: 100.0 mg/kg/injection, schedule: Q01DX001 (ip), vehicle: saline with Tween-80 94 % of control | dose: 200.0 mg/kg/injection, schedule: Q01DX001 (ip), vehicle: saline with Tween-80 92 % of control | dose: 400.0 mg/kg/injection, schedule: Q01DX001 (ip), vehicle: saline with Tween-80 92 % of control

Clc1ccc(Cl)c(-c2csc(Nc3cccnc3)n2)c1
inactive: [1] 92 % of control | [2] 94 % of control | [3] 97 % of control

CCC(Br)Cc1ccccc1 (stereo not drawn)
inactive: dose: 2.0 mg/kg/injection, schedule: Q01DX015 (ip), vehicle: saline 91 % of control | dose: 4.0 mg/kg/injection, schedule: Q01DX015 (ip), vehicle: saline 91 % of control | dose: 8.0 mg/kg/injection, schedule: Q01DX015 (ip), vehicle: saline 91 % of control | dose: 16.0 mg/kg/injection, schedule: Q01DX015 (ip), vehicle: saline 95 % of control

CCC1CCCC(C(=O)O)N1 (stereo not drawn)
inactive: dose: 100.0 mg/kg/injection, schedule: Q01DX009 (ip), vehicle: saline 101 % of control | [1] 95 % of control | dose: 200.0 mg/kg/injection, schedule: Q01DX009 (ip), vehicle: saline 95 % of control | [2] 95 % of control | dose: 400.0 mg/kg/injection, schedule: Q01DX009 (ip), vehicle: saline 100 % of control | [3] 105 % of control

C=C1C(=O)OC2/C=C(\C)CC/C=C(\C)CC(OC(C)=O)C12 (stereo not drawn)
inactive: dose: 50.0 mg/kg/injection, schedule: Q01DX001 (ip), vehicle: saline 96 % of control | dose: 100.0 mg/kg/injection, schedule: Q01DX001 (ip), vehicle: saline 96 % of control | dose: 200.0 mg/kg/injection, schedule: Q01DX001 (ip), vehicle: saline 107 % of control

CCOC(=O)NCC(CCN(CC)CC)(c1cccc2ccccc12)C(C)CC (stereo not drawn)
inactive: dose: 100.0 mg/kg/injection, schedule: Q04DX002 (ip), vehicle: saline 93 % of control | dose: 200.0 mg/kg/injection, schedule: Q04DX002 (ip), vehicle: saline 90 % of control | dose: 400.0 mg/kg/injection, schedule: Q04DX002 (ip), vehicle: saline 100 % of control

Clc1ccc(/C=C/c2ccc3ccccc3n2)cc1
inactive: dose: 75.0 mg/kg/injection, schedule: Q01DX Z (ip), vehicle: carboxymethylcellulose (CMC) 96 % of control | dose: 113.0 mg/kg/injection, schedule: Q01DX Z (ip), vehicle: carboxymethylcellulose (CMC) 90 % of control | dose: 170.0 mg/kg/injection, schedule: Q01DX Z (ip), vehicle: carboxymethylcellulose (CMC) 88 % of control | dose: 255.0 mg/kg/injection, schedule: Q01DX Z (ip), vehicle: carboxymethylcellulose (CMC) 88 % of control
